Counter-ions that a name gives are not always drawn.
tested on: collagen 1; test: WI-38 collagen 1 inhibition assay (anti-Collagen I immunofluorescence); type: cell-based; details: cellular EC50, WI-38 human lung fibroblasts, values are LogEC50 classes;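 further: minus sign means inactive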
Experimental: WI-38 cells (ATCC® CCL-75™) were maintained in MEM EAGLE (NEAA) W. GLUTAMIN (Biological Industries, Cat. 06-1040-15-1A) containing 10% fetal bovine serum (FBS) and 1% Penicillin-Streptomycin Solution. To synchronize the cells (cell cycle synchronization) prior to induction of collagen synthesis, the cells were starved using DMEM-low glucose supplemented with 0.25% FBS for two hours and then without FBS for 24 hours. To induce collagen synthesis, the cells were treated with a collagen induction cocktail for the indicated time. Compounds were added with induction.
Cells in 96-well or 384-well plates were fixed for 20 min in 4% paraformaldehyde (PFA, ENCO, Cat. sc-281692). Following two washes with 1×PBS, cells were treated with hydrogen peroxide (Acros, Cat: 7722-84-1) for 10 minutes and then washed twice with 1×PBS. Cells were then incubated over-night at 4° C. with Anti-Collagen I (Sigma-Aldrich, Cat: C 2456) antibody and washed three times with 1×PBS. Cell were then incubated with a suitable secondary fluorescently-tagged antibody and nuclei stained with DAPI, for 1 hour, and then washed 3 times with 1×PBS.
Cell images were taken with Operetta (Perkin Elmer, USA), a wide-field fluorescence microscope at 20× magnification. After acquisition, the images were transferred to Columbus software (Perkin-Elmer) for image analysis. In Columbus, cells were identified by their nucleus, using the “Find Nuceli” module and cytoplasm was detected based on the secondary antibody channel. Subsequently, the fluorescent signal was enumerated in the identified cell region. Data was exported to a data analysis and visualization software, Tibco Spotfire, USA.

Row | SMILES | COL1 Efficacy (LogEC50)
1 | Clc1ccc2[nH]c(CN3CCN(c4ccncc4)CC3)cc2c1 [compound 245, 5-chloro-2-[[4-(4-pyridyl)piperazin-1-yl]methyl]-1H-indole formate] | −
2 | Nc1ccc2[nH]c(CN3CCN(c4ccncc4)CC3)cc2c1 [compound 246, 2-[[4-(4-pyridyl)piperazin-1-yl]methyl]-1H-indol-5-amine] | ++ (++: −5 to −6)
3 | Clc1cccc2cc(CN3CCN(c4ccncc4)CC3)[nH]c12 [compound 247, 7-chloro-2-[[4-(4-pyridyl)piperazin-1-yl]methyl]-1H-indole] | +++ (+++: <−6)
4 | Clc1c(CN2CCN(c3ccncc3)CC2)[nH]c2ccccc12 [compound 248, 3-chloro-2-[[4-(4-pyridyl)piperazin-1-yl]methyl]-1H-indole] | +++ (+++: <−6)
5 | O=C(Nc1ccc2[nH]c(CN3CCN(c4ccncc4)CC3)cc2c1)c1ccccc1 [compound 249, N-[2-[[4-(4-pyridyl)piperazin-1-yl]methyl]-1H-indol-5-yl]benzamide] | +++ (+++: <−6)
6 | O=C(Nc1ccccc1)c1ccc2[nH]c(CN3CCN(c4ccncc4)CC3)cc2c1 [compound 250, N-phenyl-2-[[4-(4-pyridyl)piperazin-1-yl]methyl]-1H-indole-5-carboxamide] | + (+: >−5)
7 | CS(=O)(=O)Nc1ccc2[nH]c(CN3CCN(c4ccncc4)CC3)cc2c1 [compound 251, N-[2-[[4-(4-pyridyl)piperazin-1-yl]methyl]-1H-indol-5-yl]methanesulfonamide] | + (+: >−5)
8 | Cc1ccc2[nH]c(CN3CCN(c4ccncc4)CC3)cc2c1 [compound 252, 5-methyl-2-[[4-(4-pyridyl)piperazin-1-yl]methyl]-1H-indole] | ++ (++: −5 to −6)
9 | c1ccc2[nH]c(CN3CCN(c4ccncc4)CC3)nc2c1 [compound 253, 2-[[4-(4-pyridyl)piperazin-1-yl]methyl]-1H-benzimidazole] | ++ (++: −5 to −6)
10 | Cc1ncnc(N2CCN(Cc3nc4ccccc4s3)CC2)c1C [compound 254, 2-[[4-(5,6-dimethylpyrimidin-4-yl)piperazin-1-yl]methyl]-1,3-benzothiazole] | +++ (+++: <−6)
11 | FC(F)(F)c1ccc2cc(CN3CCN(c4ccncc4)CC3)[nH]c2c1 [compound 255, 2-[[4-(4-pyridyl)piperazin-1-yl]methyl]-6-(trifluoromethyl)-1H-indole] | +++ (+++: <−6)
12 | N#Cc1ccc2[nH]c(CN3CCN(c4ccncc4)CC3)cc2c1 [compound 256, 2-[[4-(4-pyridyl)piperazin-1-yl]methyl]-1H-indole-5-carbonitrile] | +++ (+++: <−6)
13 | Cc1ncnc(N2CCN(Cc3nc4ccccc4[nH]3)CC2)c1C [compound 257, 2-[[4-(5,6-dimethylpyrimidin-4-yl)piperazin-1-yl]methyl]-1H-benzimidazole] | ++ (++: −5 to −6)
14 | CC(=O)Nc1ccc2[nH]c(CN3CCN(c4ccncc4)CC3)cc2c1 [compound 258, N-[2-[[4-(4-pyridyl)piperazin-1-yl]methyl]-1H-indol-5-yl]acetamide] | ++ (++: −5 to −6)
15 | Cc1ncnc(N2CCN(Cc3nc4ccccc4o3)CC2)c1C [compound 259, 2-[[4-(5,6-dimethylpyrimidin-4-yl)piperazin-1-yl]methyl]-1,3-benzoxazole] | +++ (+++: <−6)
16 | COCCOc1ccc2[nH]c(CN3CCN(c4ccncc4)CC3)cc2c1 [compound 260, 5-(2-methoxyethoxy)-2-[[4-(4-pyridyl)piperazin-1-yl]methyl]-1H-indole] | ++ (++: −5 to −6)
17 | COCCOc1ccc2c(c1)cc(CN1CCN(c3ccncc3)CC1)n2CCOC [compound 261, 5-(2-methoxyethoxy)-1-(2-methoxyethyl)-2-((4-(pyridin-4-yl)piperazin-1-yl)methyl)-1H-indole] | −

Row | SMILES | COL1 Efficacy (LogEC50)
18 | c1cc(CN2CCN(c3ccncc3)CC2)c2[nH]ccc2c1 [compound 262, 7-[[4-(4-pyridyl)piperazin-1-yl]methyl]-1H-indole] | −
19 | c1cc(CN2CCN(c3ccncc3)CC2)c2cc[nH]c2c1 [compound 263, 4-[[4-(4-pyridyl)piperazin-1-yl]methyl]-1H-indole] | −
20 | c1cc(N2CCN(Cc3ccc4[nH]ccc4c3)CC2)ccn1 [compound 264, 5-[[4-(4-pyridyl)piperazin-1-yl]methyl]-1H-indole] | −
21 | c1cc(N2CCN(Cc3ccc4cc[nH]c4c3)CC2)ccn1 [compound 265, 6-[[4-(4-pyridyl)piperazin-1-yl]methyl]-1H-indole] | ++ (++: −5 to −6)
22 | Cc1cncnc1N1CCN(Cc2cc3ccccc3[nH]2)CC1 [compound 266, 2-[[4-(5-methylpyrimidin-4-yl)piperazin-1-yl]methyl]-1H-indole formate] | + (+: >−5)
23 | OC1(c2ccncc2)CCN(Cc2cc3ccccc3[nH]2)CC1 [compound 267, 1-(1H-indol-2-ylmethyl)-4-(4-pyridyl)piperidin-4-ol] | −
24 | c1ccc2[nH]c(CN3CCC(Oc4ccncc4)CC3)cc2c1 [compound 268, 2-[[4-(4-pyridyloxy)-1-piperidyl]methyl]-1H-indole] | ++ (++: −5 to −6)
25 | c1ccc2[nH]c(CN3CCC(c4ccncc4)CC3)cc2c1 [compound 269, 2-[[4-(4-pyridyl)-1-piperidyl]methyl]-1H-indole] | −
26 | c1cc(N2CCN(Cc3cc4ccncc4[nH]3)CC2)ccn1 [compound 270, 2-[[4-(4-pyridyl)piperazin-1-yl]methyl]-1H-pyrrolo[2,3-c]pyridine] | −
27 | c1ccc2[nH]c(CN3CC4(C3)CN(c3ccncc3)C4)cc2c1 [compound 271, 2-[[2-(4-pyridyl)-2,6-diazaspiro[3.3]heptan-6-yl]methyl]-1H-indole] | −
28 | c1ccc2[nH]c(CN3CCC4(CCN(c5ccncc5)C4)C3)cc2c1 (stereo not drawn) [compound 272, 7-(1H-indol-2-ylmethyl)-2-(4-pyridyl)-2,7-diazaspiro[4.4]nonane] | −
29 | c1ccc2[nH]c(CN3CCCN(c4ccncc4)CC3)cc2c1 [compound 273, 2-[[4-(4-pyridyl)-1,4-diazepan-1-yl]methyl]-1H-indole] | −
30 | c1ccn2cc(CN3CCN(c4ccncc4)CC3)nc2c1 [compound 274, 2-[[4-(4-pyridyl)piperazin-1-yl]methyl]imidazo[1,2-a]pyridine] | −
31 | c1cnc2[nH]c(CN3CCN(c4ccncc4)CC3)cc2c1 [compound 275, 2-[[4-(4-pyridyl)piperazin-1-yl]methyl]-1H-pyrrolo[2,3-b]pyridine] | −
32 | C[C@@H]1CN(Cc2cc3ccccc3[nH]2)C[C@H](C)N1c1ccncc1 [compound 276, 2-[[(3S,5R)-3,5-dimethyl-4-(4-pyridyl)piperazin-1-yl]methyl]-1H-indole] | −
33 | c1ccc2c(CN3CCN(c4ccncc4)CC3)c[nH]c2c1 [compound 277, 3-((4-(pyridin-4-yl)piperazin-1-yl)methyl)-1H-indole bis 2,2,2-trifluoroacetate] | −

Reference: patent US20230150980A1, “COLLAGEN 1 TRANSLATION INHIBITORS AND METHODS OF USE THEREOF” (Anima Biotech Inc., priority 2020, published 2023)
